# Assay results taken from ChEMBL document CHEMBL1148718, “Structure-activity relationship study on N-(1,2,3,4-tetrahydronaphthalen-1-yl)-4-aryl-1-piperazinehexanamides, a class of 5-HT7 receptor agents. 2” (J Med Chem, 2007).
# Experiments:
# D(2) dopamine receptor [1] = target: T1, D(2) dopamine receptor (Homo sapiens, UniProt P14416); assay: Displacement of [3H]spiroperidol from human recombinant Dopamine D2 long receptor
# [2] = target: T2, 5-hydroxytryptamine receptor 7 (Cavia porcellus, UniProt P50407); assay: (§1) Agonist activity at 5HT7 receptor in guinea pig ileum assessed as relaxation of substance P-induced contraction; type: functional, tissue-based
# [3] = target: 5-hydroxytryptamine receptor 7 (Cavia porcellus) (UniProt P50407); assay: as §1; type: functional, tissue-based
# [4] = target: 5-hydroxytryptamine receptor 2A (Rattus norvegicus) (UniProt P14842); assay: Displacement of [3H]ketanserin from 5HT2A receptor in Sprague-Dawley cortex membrane at >4000 uM; type: cell membranes
# D(2) dopamine receptor [5] = target: T1, D(2) dopamine receptor; assay: Displacement of [3H]spiroperidol from human recombinant Dopamine D2 long receptor […]
# [6] = target: T3, 5-hydroxytryptamine receptor 1A (Homo sapiens, UniProt P08908); assay: Displacement of [3H]8-OH-DPAT from human recombinant 5HT1A receptor expressed in HEK293 cells; type: cell-based
# T3 sequence (P08908 whole entry): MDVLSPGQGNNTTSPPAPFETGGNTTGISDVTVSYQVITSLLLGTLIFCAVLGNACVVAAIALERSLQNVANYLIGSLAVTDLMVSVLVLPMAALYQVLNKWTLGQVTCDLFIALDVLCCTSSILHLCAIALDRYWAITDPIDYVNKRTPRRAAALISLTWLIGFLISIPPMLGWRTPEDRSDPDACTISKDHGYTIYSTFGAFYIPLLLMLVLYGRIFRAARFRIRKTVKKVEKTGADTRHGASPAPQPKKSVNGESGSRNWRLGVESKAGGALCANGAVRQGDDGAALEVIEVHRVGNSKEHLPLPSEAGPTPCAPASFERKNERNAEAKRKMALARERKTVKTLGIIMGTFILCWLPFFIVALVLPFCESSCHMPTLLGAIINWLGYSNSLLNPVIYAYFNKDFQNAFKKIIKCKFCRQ
# [7] = target: 5-hydroxytryptamine receptor 7 (Rattus norvegicus, UniProt P32305); assay: Displacement of [3H]LSD from rat recombinant 5HT7 receptor expressed in HEK293 cells; type: cell-based
# [8] = target: 5-hydroxytryptamine receptor 2A (Rattus norvegicus, UniProt P14842); assay: Displacement of [3H]ketanserin from 5HT2A receptor in Sprague-Dawley cortex membrane; type: cell membranes
# [9] = Selectivity for rat 5HT7 over human 5HT1A
# [10] = target: T2, 5-hydroxytryptamine receptor 7; assay: Antagonist activity at 5HT7 receptor in guinea pig ileum assessed as effect on substance P-induced contraction; type: functional, tissue-based; conditions: read-out: pA2 (converted)
# [11] = target: T2, 5-hydroxytryptamine receptor 7; assay: Antagonist activity at 5HT7 receptor in guinea pig ileum assessed as effect on 6-(4-phenylpiperazin-1-yl)-N-(1,2,3,4-tetrahydronaphthalen-1-yl)hexanamide mediated relaxation of substance P-induced contraction; type: functional, tissue-based; conditions: read-out: pA2 (converted)
# [12] = target: T2, 5-hydroxytryptamine receptor 7; assay: Antagonist activity at 5HT7 receptor in guinea pig ileum assessed as effect on 4-[2-(1-methylethyl)phenyl]-N-(1,2,3,4-tetrahydronaphthalen-1-yl)-1-piperazine hexanamide mediated relaxation of substance P-induced contraction; type: functional, tissue-based; conditions: read-out: pA2 (converted)
# [13] = target: T2, 5-hydroxytryptamine receptor 7; assay: Antagonist activity at 5HT7 receptor in guinea pig ileum assessed as effect on 6-(4-(2-chlorophenyl)piperazine-1-yl)-N-(1,2,3,4-tetrahydronaphthalen-1-yl)hexanamide mediated relaxation of substance P-induced contraction; type: functional, tissue-based; conditions: read-out: pA2 (converted)
# [14] = target: T2, 5-hydroxytryptamine receptor 7; assay: Antagonist activity at 5HT7 receptor in guinea pig ileum assessed as effect on 6-(4-(2-nitrophenyl)piperazin-1-yl)-N-(1,2,3,4-tetrahydronaphthalen-1-yl)hexanamide mediated relaxation of substance P-induced contraction; type: functional, tissue-based; conditions: read-out: pA2 (converted)
# [15] = target: T2, 5-hydroxytryptamine receptor 7; assay: Antagonist activity at 5HT7 receptor in guinea pig ileum assessed as effect on 4-(2-dimethylaminophenyl)-N-(1,2,3,4-tetrahydronaphthalen-1-yl)-1-piperazine hexanamide mediated relaxation of substance P-induced contraction; type: functional, tissue-based; conditions: read-out: pA2 (converted)
# [16] = target: T2, 5-hydroxytryptamine receptor 7; assay: Antagonist activity at 5HT7 receptor in guinea pig ileum assessed as effect on 4-(2-diphenyl)-N-(1,2,3,4-tetrahydronaphthalen-1-yl)-1-piperazine hexanamide mediated relaxation of substance P-induced contraction; type: functional, tissue-based; conditions: read-out: pA2 (converted)
# [17] = target: T2, 5-hydroxytryptamine receptor 7; assay: Antagonist activity at 5HT7 receptor in guinea pig ileum assessed as effect on 3-(2-aminoethyl)-1H-indole-5-carboxamide mediated relaxation of substance P-induced contraction; type: functional, tissue-based; conditions: read-out: pA2 (converted)
# [18] = Ratio of Ki for human Dopamine D2L receptor to Ki for rat 5HT7 receptor
# T1 sequence (P14416 whole entry): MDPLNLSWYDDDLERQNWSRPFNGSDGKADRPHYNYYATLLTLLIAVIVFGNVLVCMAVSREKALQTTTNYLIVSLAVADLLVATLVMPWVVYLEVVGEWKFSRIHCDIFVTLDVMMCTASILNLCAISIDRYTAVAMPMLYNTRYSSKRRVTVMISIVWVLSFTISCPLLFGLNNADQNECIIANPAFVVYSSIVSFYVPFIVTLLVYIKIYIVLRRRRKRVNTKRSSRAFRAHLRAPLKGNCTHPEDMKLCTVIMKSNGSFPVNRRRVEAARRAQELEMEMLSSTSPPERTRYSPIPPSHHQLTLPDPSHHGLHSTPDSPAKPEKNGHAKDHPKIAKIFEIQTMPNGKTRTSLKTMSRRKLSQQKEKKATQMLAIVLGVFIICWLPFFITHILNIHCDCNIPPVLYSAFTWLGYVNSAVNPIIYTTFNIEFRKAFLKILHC
# Sequence of 5-hydroxytryptamine receptor 7 (Cavia porcellus) (P50407 whole entry): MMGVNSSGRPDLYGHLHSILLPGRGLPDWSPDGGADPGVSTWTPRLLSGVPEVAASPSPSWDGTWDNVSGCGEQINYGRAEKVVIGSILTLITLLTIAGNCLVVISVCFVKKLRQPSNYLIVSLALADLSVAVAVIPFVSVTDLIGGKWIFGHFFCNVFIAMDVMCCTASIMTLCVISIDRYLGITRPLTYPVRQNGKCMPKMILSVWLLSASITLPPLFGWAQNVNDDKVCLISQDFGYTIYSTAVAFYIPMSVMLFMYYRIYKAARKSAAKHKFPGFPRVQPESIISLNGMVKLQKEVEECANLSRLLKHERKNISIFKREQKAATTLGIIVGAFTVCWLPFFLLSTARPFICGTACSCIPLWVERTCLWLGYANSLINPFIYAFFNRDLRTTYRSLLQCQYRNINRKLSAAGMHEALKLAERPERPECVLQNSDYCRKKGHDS
# T2 sequence (P50407 whole entry): as above
# Sequence of 5-hydroxytryptamine receptor 2A (P14842 whole entry): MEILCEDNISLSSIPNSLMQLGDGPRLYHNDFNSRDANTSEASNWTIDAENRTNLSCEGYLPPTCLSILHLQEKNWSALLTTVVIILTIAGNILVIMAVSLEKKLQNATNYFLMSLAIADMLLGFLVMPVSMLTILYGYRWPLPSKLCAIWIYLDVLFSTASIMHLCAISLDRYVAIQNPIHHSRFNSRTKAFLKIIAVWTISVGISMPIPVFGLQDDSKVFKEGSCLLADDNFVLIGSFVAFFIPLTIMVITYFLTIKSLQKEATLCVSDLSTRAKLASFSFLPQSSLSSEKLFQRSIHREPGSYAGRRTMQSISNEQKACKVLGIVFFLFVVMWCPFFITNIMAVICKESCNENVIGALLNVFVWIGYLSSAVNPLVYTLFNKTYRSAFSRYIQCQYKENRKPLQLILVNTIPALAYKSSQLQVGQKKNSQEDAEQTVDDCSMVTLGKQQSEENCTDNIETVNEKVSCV
# Sequence of 5-hydroxytryptamine receptor 7 (Rattus norvegicus, UniProt P32305) (P32305 whole entry): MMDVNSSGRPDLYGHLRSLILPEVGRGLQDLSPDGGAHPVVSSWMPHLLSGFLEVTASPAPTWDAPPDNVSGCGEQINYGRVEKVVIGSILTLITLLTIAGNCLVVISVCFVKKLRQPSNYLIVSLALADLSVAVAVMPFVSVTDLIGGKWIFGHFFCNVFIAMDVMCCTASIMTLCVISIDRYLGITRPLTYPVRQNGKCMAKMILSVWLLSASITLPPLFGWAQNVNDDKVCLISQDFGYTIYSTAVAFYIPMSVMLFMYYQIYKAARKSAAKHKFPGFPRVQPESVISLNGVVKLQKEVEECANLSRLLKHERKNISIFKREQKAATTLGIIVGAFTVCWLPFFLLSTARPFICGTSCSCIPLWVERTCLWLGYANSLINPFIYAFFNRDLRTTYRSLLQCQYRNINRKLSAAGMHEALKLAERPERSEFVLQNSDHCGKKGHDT
# Sequence of 5-hydroxytryptamine receptor 2A (Rattus norvegicus) (P14842 whole entry): as the sequence (P14842 whole entry) above
Compound,Ki (D(2) dopamine receptor [1]) [nM],Ki [6] [nM],Ki [7] [nM],Ki [8] [nM],other results
O=C(CCCCCN1CCN(c2ccccc2[N+](=O)[O-])CC1)NC1CCCc2ccccc21 (stereo not given),681,–,–,–,EC50 [2]: 10000 nM; %max [3]: 24%
NC(=O)c1ccccc1N1CCN(CCCCCC(=O)NC2CCCc3ccccc32)CC1 (stereo not given),> 1000,–,–,–,inhibition [4]: 9%; inhibition (D(2) dopamine receptor [5]): 32%
O=C(CCCCCN1CCN(c2ccccc2)CC1)NC1CCCc2ccccc21 (stereo not given),1000,–,–,–,EC50 [2]: 8000 nM; %max [3]: 40%
CCCc1ccccc1N1CCN(CCCCCC(=O)NC2CCCc3ccccc32)CC1 (stereo not given),123,168,49.6,3190,–
O=C(CCCCCN1CCN(c2cccc[n+]2[O-])CC1)NC1CCCc2ccccc21 (stereo not given),–,194,8030,–,–
CC(=O)c1ccccc1N1CCN(CCCCCC(=O)NC2CCCc3ccccc32)CC1 (stereo not given),68,–,–,–,–
CC(C)c1ccccc1N1CCN(CCCCCC(=O)NC2CCCc3ccccc32)CC1 (stereo not given),15,167,1.1,4820,Selectivity ratio [9]: > 100; EC50 [2]: 900 nM; %max [3]: 83%
N#Cc1ccccc1N1CCN(CCCCCC(=O)NC2CCCc3ccccc32)CC1 (stereo not given),265,–,–,–,–
CS(=O)(=O)c1ccccc1N1CCN(CCCCCC(=O)NC2CCCc3ccccc32)CC1 (stereo not given),> 1000,–,–,–,inhibition [4]: 38%; inhibition (D(2) dopamine receptor [5]): 32%
O=C(CCCCCN1CCN(c2ccccn2)CC1)NC1CCCc2ccccc21 (stereo not given),> 1000,36.4,278,535,inhibition (D(2) dopamine receptor [5]): 15%
CC(C)(C)c1ccccc1N1CCN(CCCCCC(=O)NC2CCCc3ccccc32)CC1 (stereo not given),> 1000,1200,538,–,inhibition (D(2) dopamine receptor [5]): 38%
CC1CCN(CC[C@H]2CCCN2S(=O)(=O)c2cccc(O)c2)CC1,–,–,–,–,Kb [11]: 7.94 nM; Kb [12]: 8.91 nM; Kb [13]: 3.98 nM; Kb [14]: 6.31 nM; Kb [15]: 12.6 nM; Kb [16]: 14.5 nM; Kb [17]: 33.1 nM
CCCCc1ccccc1N1CCN(CCCCCC(=O)NC2CCCc3ccccc32)CC1 (stereo not given),60,60,2810,–,–
O=C(CCCCCN1CCN(c2ccccc2-c2ccccc2)CC1)NC1CCCc2ccccc21 (stereo not given),224,60.9,0.13,1460,Selectivity ratio [9]: > 100; Ratio Ki [18]: 1720; EC50 [2]: 1770 nM; %max [3]: 74%
NCCc1c[nH]c2ccc(C(N)=O)cc12,–,–,0.5,–,EC50 [2]: 630 nM; %max [3]: 100%

# Continued, in another order:
Ki (D(2) dopamine receptor [1]) [nM],Ki [6] [nM],Ki [7] [nM],Ki [8] [nM],Compound,other results
143,–,–,–,Cc1ccccc1N1CCN(CCCCCC(=O)NC2CCCc3ccccc32)CC1 (stereo not given),–
> 1000,2500,338,3520,CC(=O)Nc1ccccc1N1CCN(CCCCCC(=O)NC2CCCc3ccccc32)CC1 (stereo not given),inhibition (D(2) dopamine receptor [5]): 35%
–,415,8180,–,Nc1ccccc1N1CCN(CCCCCC(=O)NC2CCCc3ccccc32)CC1 (stereo not given),–
> 1000,–,4250,–,CS(=O)(=O)Nc1ccccc1N1CCN(CCCCCC(=O)NC2CCCc3ccccc32)CC1 (stereo not given),inhibition (D(2) dopamine receptor [5]): 28%
26.4,–,–,–,COc1ccccc1N1CCN(CCCCCC(=O)NC2CCCc3ccccc32)CC1 (stereo not given),–
173,79.2,7.1,3370,CCc1ccccc1N1CCN(CCCCCC(=O)NC2CCCc3ccccc32)CC1 (stereo not given),–
7.3,–,–,–,CSc1ccccc1N1CCN(CCCCCC(=O)NC2CCCc3ccccc32)CC1 (stereo not given),–
107,133,25.4,1590,CNc1ccccc1N1CCN(CCCCCC(=O)NC2CCCc3ccccc32)CC1 (stereo not given),Kb [10]: 20 nM; %max [3]: 0%
987,–,–,–,O=C(CCCCCN1CCN(c2ccccc2O)CC1)NC1CCCc2ccccc21 (stereo not given),–
292,29.2,131,194,O=C(CCCCCN1CCN(c2ccccc2F)CC1)NC1CCCc2ccccc21 (stereo not given),–
32,112,0.9,559,CN(C)c1ccccc1N1CCN(CCCCCC(=O)NC2CCCc3ccccc32)CC1 (stereo not given),Selectivity ratio [9]: > 100; EC50 [2]: 1170 nM; %max [3]: 100%
51,–,–,–,O=C(CCCCCN1CCN(c2ccccc2Cl)CC1)NC1CCCc2ccccc21 (stereo not given),EC50 [2]: 17000 nM; %max [3]: 13%
